Results: the NIST ThermoML archive (doi:10.1016/j.jct.2015.09.029)

Experiment: mn = molality of the nth substance listed, in mol/kg
Settings: 100 kPa, Liquid; for viscosity: Capillary tube (Ostwald / Ubbelohde) method; for speed of sound: Frequency=2 MHz, Linear variable-path acoustic interferometer; for mass density: Vibrating tube method

CCCC[P+](CCCC)(CCCC)CCCC.[Cl-] [tetrabutylphosphonium chloride] + O
Settings	mass density [kg/m3]	speed of sound [m/s]	viscosity [mPa·s]
298.15 K, m1 = 0.0249	996.83	1506.4	0.9234
298.15 K, m1 = 0.0773	996.44	1520	0.9925
298.15 K, m1 = 0.1592	995.93	1541.6	1.101
298.15 K, m1 = 0.2659	995.41	1567.7	1.241
298.15 K, m1 = 0.3842	994.99	1593.7	1.397
298.15 K, m1 = 0.4509	994.8	1607.4	1.486
298.15 K, m1 = 0.504	994.67	1617.5	1.556
298.15 K, m1 = 0.5771	994.5	1630.3	1.652
303.15 K, m1 = 0.0249	995.41	1518.2	0.8256
303.15 K, m1 = 0.0773	994.97	1532.4	0.8843
303.15 K, m1 = 0.1592	994.37	1551.9	0.9761
303.15 K, m1 = 0.2659	993.73	1575.2	1.095
303.15 K, m1 = 0.3842	993.17	1598.2	1.228
303.15 K, m1 = 0.4509	992.9	1610.1	1.302
303.15 K, m1 = 0.504	992.7	1619.5	1.362
303.15 K, m1 = 0.5771	992.42	1633.2	1.444
308.15 K, m1 = 0.0295	993.74	1529.8	0.7476
308.15 K, m1 = 0.0842	993.23	1541.2	0.7998
308.15 K, m1 = 0.1722	992.52	1559.9	0.8836
308.15 K, m1 = 0.2979	991.68	1585.8	1.004
308.15 K, m1 = 0.3554	991.35	1595.6	1.058
308.15 K, m1 = 0.4266	990.98	1607.8	1.126
308.15 K, m1 = 0.4508	990.86	1611.9	1.149
308.15 K, m1 = 0.5619	990.34	1628.9	1.255
313.15 K, m1 = 0.0295	991.9	1537.3	0.6773
313.15 K, m1 = 0.0842	991.36	1547.8	0.722
313.15 K, m1 = 0.1722	990.57	1566.5	0.7937
313.15 K, m1 = 0.2979	989.61	1588.4	0.8964
313.15 K, m1 = 0.3554	989.21	1597.3	0.9432
313.15 K, m1 = 0.4266	988.76	1607.8	1.001
313.15 K, m1 = 0.4508	988.61	1611.4	1.021
313.15 K, m1 = 0.5619	987.95	1627.3	1.112

CCCC[P+](C)(CCCC)CCCC.COS(=O)(=O)[O-] [tributylmethylphosphonium methyl sulfate] + O
Settings	mass density [kg/m3]	speed of sound [m/s]	viscosity [mPa·s]
298.15 K, m1 = 0.0282	997.65	1504.7	0.9199
298.15 K, m1 = 0.0438	997.98	1507.9	0.9362
298.15 K, m1 = 0.0564	998.25	1510.3	0.9494
298.15 K, m1 = 0.0658	998.45	1512.1	0.9592
298.15 K, m1 = 0.0847	998.86	1515.5	0.9789
298.15 K, m1 = 0.113	999.46	1520.9	1.009
298.15 K, m1 = 0.174	1000.77	1533.3	1.073
298.15 K, m1 = 0.2336	1002.05	1545.1	1.135
298.15 K, m1 = 0.2813	1003.07	1554.3	1.185
303.15 K, m1 = 0.0282	996.22	1517.7	0.8225
303.15 K, m1 = 0.0438	996.54	1521.6	0.8362
303.15 K, m1 = 0.0564	996.8	1524.6	0.8473
303.15 K, m1 = 0.0658	996.99	1526.7	0.8555
303.15 K, m1 = 0.0847	997.38	1530.7	0.8722
303.15 K, m1 = 0.113	997.96	1536.2	0.8971
303.15 K, m1 = 0.174	999.21	1547.8	0.951
303.15 K, m1 = 0.2336	1000.44	1558.6	1.004
303.15 K, m1 = 0.2813	1001.42	1566.7	1.046
308.15 K, m1 = 0.0282	994.58	1527.2	0.7395
308.15 K, m1 = 0.0438	994.89	1530.9	0.7505
308.15 K, m1 = 0.0564	995.14	1533.7	0.7595
308.15 K, m1 = 0.0658	995.32	1535.9	0.7662
308.15 K, m1 = 0.0847	995.7	1539.9	0.7796
308.15 K, m1 = 0.113	996.25	1545.9	0.7997
308.15 K, m1 = 0.174	997.45	1557.5	0.8432
308.15 K, m1 = 0.2336	998.62	1568.4	0.8857
308.15 K, m1 = 0.2813	999.56	1576.3	0.9199
313.15 K, m1 = 0.0282	992.74	1536.3	0.6725
313.15 K, m1 = 0.0438	993.04	1540	0.6832
313.15 K, m1 = 0.0564	993.27	1542.7	0.6919
313.15 K, m1 = 0.0658	993.45	1544.8	0.6983
313.15 K, m1 = 0.0847	993.81	1548.8	0.7113
313.15 K, m1 = 0.113	994.34	1554.2	0.7308
313.15 K, m1 = 0.174	995.49	1564.7	0.7728
313.15 K, m1 = 0.2336	996.62	1572	0.814
313.15 K, m1 = 0.2813	997.52	1578	0.847
